Laboratory results: patent publication US10722501B2 (BAYER AKTIENGESELLSCHAFT, priority 2016, dated 2020)

target: T1, recombinant full-length human prolyl endopeptidase (PREP) (Homo sapiens, UniProt P48147); experiment: Biochemical human prolyl endopeptidase (PREP) assay with fluorescently labelled substrate; settings: substrate Z-Gly-Pro-AMC 50 μM, 32° C., 60 min; some as mean values from multiple independent determinations
T1 construct: To recombinant full-length human prolyl endopeptidase (PREP, R&D-Systems, 4308-SE); purchased R&D-Systems 4308-SE
T1 sequence (P48147 1-710): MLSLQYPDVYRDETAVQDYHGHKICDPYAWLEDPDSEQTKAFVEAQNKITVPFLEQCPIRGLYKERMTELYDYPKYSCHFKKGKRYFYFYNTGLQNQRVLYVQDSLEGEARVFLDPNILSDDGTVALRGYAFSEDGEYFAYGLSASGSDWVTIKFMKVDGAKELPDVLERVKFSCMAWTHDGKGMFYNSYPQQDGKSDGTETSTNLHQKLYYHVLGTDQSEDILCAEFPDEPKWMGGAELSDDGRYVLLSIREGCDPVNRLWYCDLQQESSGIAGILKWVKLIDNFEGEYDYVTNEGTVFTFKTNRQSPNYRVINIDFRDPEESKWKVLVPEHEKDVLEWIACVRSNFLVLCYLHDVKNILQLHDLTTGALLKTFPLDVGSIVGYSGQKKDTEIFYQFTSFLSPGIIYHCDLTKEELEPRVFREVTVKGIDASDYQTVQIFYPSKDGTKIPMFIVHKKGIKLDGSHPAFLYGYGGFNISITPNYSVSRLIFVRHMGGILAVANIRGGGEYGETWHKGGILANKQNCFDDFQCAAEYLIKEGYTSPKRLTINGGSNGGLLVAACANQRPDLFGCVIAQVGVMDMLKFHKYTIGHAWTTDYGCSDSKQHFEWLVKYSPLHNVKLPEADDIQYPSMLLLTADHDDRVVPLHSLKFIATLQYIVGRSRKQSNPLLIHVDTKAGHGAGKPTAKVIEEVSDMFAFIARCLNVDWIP
Procedure, shortened: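 0.4 nM (final, example) recombinant PREP in pH 7.5 Tris buffer with EDTA, GSH, BSA and Brij-35; compounds at 1 nM to 30 μM. Reaction started with 50 μM Z-Gly-Pro-AMC and followed by fluorescence (ex 360/em 465 nm) at 32° C for 60 min. IC50 interpolated from percent activity based on initial slopes.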

Compound | IC50
CC(C)(C)c1ccc(Cn2nc3n(c2=O)C(C(=O)N2CCCC2)CCC3)cc1 (racemic) [Example 2, (5RS)-2-(4-tert-Butylbenzyl)-5-(pyrrolidin-1-ylcarbonyl)-5,6,7,8-tetrahydro[1,2,4]triazolo[4,3-a]pyridin-3(2H)-one] | 15.4 nM
O=C(C1CCc2nn(Cc3ccc(Cl)nc3)c(=O)n21)N1CC[C@H](F)C1 (mixture of isomers) [Example 163, (5RS)-2-[(6-Chloropyridin-3-yl)methyl]-5-{[(3S)-3-fluoropyrrolidin-1-yl]carbonyl}-2,5,6,7-tetrahydro-3H-pyrrolo[2,1-c][1,2,4]triazol-3-one] | 2.8 nM
O=C([C@@H]1CCCc2nn(CC3(c4cccc(Cl)n4)CC3)c(=O)n21)N1CCC(F)(F)C1 [Example 349, (5S)-2-{[1-(6-Chloropyridin-2-yl)cyclopropyl]methyl}-5-[(3,3-difluoropyrrolidin-1-yl)carbonyl]-5,6,7,8-tetrahydro[1,2,4]triazolo[4,3-a]pyridin-3(2H)-one] | 1.45 nM
O=C([C@@H]1CCCc2nn(Cc3ccnc(C(F)(F)F)c3F)c(=O)n21)N1CC[C@H](O)C1 [Example 479, (5S)-2-{[3-Fluoro-2-(trifluoromethyl)pyridin-4-yl]methyl}-5-{[(3S)-3-hydroxypyrrolidin-1-yl]carbonyl}-5,6,7,8-tetrahydro[1,2,4]triazolo[4,3-a]pyridin-3(2H)-one] | 25 nM
O=C([C@@H]1CCC(O)c2nn(Cc3cncc(Cl)c3)c(=O)n21)N1CC[C@H](F)C1 (mixture of isomers) [Example 279, (5S,8RS)-2-[(5-Chloropyridin-3-yl)methyl]-5-{[(3S)-3-fluoropyrrolidin-1-yl]carbonyl}-8-hydroxy-5,6,7,8-tetrahydro[1,2,4]triazolo[4,3-a]pyridin-3(2H)-one] | 0.485 nM
Cc1ccc(C2(Cn3nc4n(c3=O)[C@H](C(=O)N3CC[C@H](O)C3)CCC4)CC2)cc1 [Example 525, (5S)-5-{[(3S)-3-Hydroxypyrrolidin-1-yl]carbonyl}-2-{[1-(4-methylphenyl)cyclopropyl]methyl}-5,6,7,8-tetrahydro[1,2,4]triazolo[4,3-a]pyridin-3(2H)-one] | 15.2 nM
O=C([C@@H]1CCCc2nn(Cc3ccc(Br)cc3F)c(=O)n21)N1CC[C@H](F)C1 [Example 214, (5S)-2-(4-Bromo-2-fluorobenzyl)-5-{[(3S)-3-fluoropyrrolidin-1-yl]carbonyl}-5,6,7,8-tetrahydro[1,2,4]triazolo[4,3-a]pyridin-3(2H)-one] | 0.2 nM
CC(c1ccc(C(F)(F)F)nc1)n1nc2n(c1=O)[C@H](C(=O)N1C[C@@H](F)[C@@H](F)C1)CCC2 (single isomer, unassigned) [Example 219] | 7.3 nM
O=C(C1CCCc2nn(Cc3cccc(C(F)(F)F)c3)c(=O)n21)N1CC(O)C1 (single isomer, unassigned) [Example 98, (5RS)-5-[(3-Hydroxyazetidin-1-yl)carbonyl]-2-[3-(trifluoromethyl)benzyl]-5,6,7,8-tetrahydro[1,2,4]triazolo[4,3-a]pyridin-3(2H)-one] | 257 nM
O=C([C@@H]1CCCc2nn(Cc3ccnc(C(F)(F)F)c3F)c(=O)n21)N1CC[C@@H](F)C1 [Example 478, (5S)-5-{[(3R)-3-Fluoropyrrolidin-1-yl]carbonyl}-2-{[3-fluoro-2-(trifluoromethyl)pyridin-4-yl]methyl}-5,6,7,8-tetrahydro[1,2,4]triazolo[4,3-a]pyridin-3(2H)-one] | 2.65 nM
Cc1ccc(Cn2nc3n(c2=O)C(C)(C(=O)N2CCCC2)CCC3)cc1 (racemic) [Example 105, 5(RS)-5-Methyl-2-(4-methylbenzyl)-5-(pyrrolidin-1-ylcarbonyl)-5,6,7,8-tetrahydro[1,2,4]triazolo[4,3-a]pyridin-3(2H)-one] | 10.5 nM
O=C(O)c1ccc(Cn2nc3n(c2=O)C(C(=O)N2CCCC2)CCC3)cc1 (racemic) [Example 154, 4-{[(5RS)-3-Oxo-5-(pyrrolidin-1-ylcarbonyl)-5,6,7,8-tetrahydro[1,2,4]triazolo[4,3-a]pyridin-2(3H)-yl]methyl}benzoic acid] | 790 nM
O=C(C1CC(C(F)(F)F)Cc2nn(Cc3ccc(Cl)nc3)c(=O)n21)N1CCC(F)(F)C1 (single isomer, unassigned) [Example 232, (5RS,7RS)-2-[(6-Chloropyridin-3-yl)methyl]-5-[(3,3-difluoropyrrolidin-1-yl)carbonyl]-7-(trifluoromethyl)-5,6,7,8-tetrahydro[1,2,4]triazolo[4,3-a]pyridin-3(2H)-one] | 400 nM
O=C([C@@H]1CCCc2nn(Cc3cc(C(F)(F)F)nc4ccccc34)c(=O)n21)N1CC(F)C1 [Example 494, (5S)-5-[(3-Fluoroazetidin-1-yl)carbonyl]-2-{[2-(trifluoromethyl)quinolin-4-yl]methyl}-5,6,7,8-tetrahydro[1,2,4]triazolo[4,3-a]pyridin-3(2H)-one] | 0.91 nM
Cc1ccc(Cn2nc3n(c2=O)C(C(=O)N2CC=CCC2)CCC3)cc1 (racemic) [Example 158, (5RS)-5-(3,6-Dihydropyridin-1 (2H)-ylcarbonyl)-2-(4-methylbenzyl)-5,6,7,8-tetrahydro[1,2,4]triazolo[4,3-a]pyridin-3(2H)-one] | 8.9 nM
O=C([C@@H]1CCCc2nn(Cc3ccnc(C(F)(F)F)c3F)c(=O)n21)N1CC(F)C1 [Example 483, (5S)-5-[(3-Fluoroazetidin-1-yl)carbonyl]-2-{[3-fluoro-2-(trifluoromethyl)pyridin-4-yl]methyl}-5,6,7,8-tetrahydro[1,2,4]triazolo[4,3-a]pyridin-3(2H)-one] | 2.1 nM

Other lines, results leading:

IC50 | Compound
1.45 nM | O=C([C@@H]1CCCc2nn(Cc3nccc(C(F)(F)F)c3Cl)c(=O)n21)N1CC(F)C1 [Example 389, (5S)-2-{[3-Chloro-4-(trifluoromethyl)pyridin-2-yl]methyl}-5-[(3-fluoroazetidin-1-yl)carbonyl]-5,6,7,8-tetrahydro[1,2,4]triazolo[4,3-a]pyridin-3(2H)-one]
57 nM | O=C([C@@H]1CCCc2nn(Cc3ccnc(C(F)(F)F)n3)c(=O)n21)N1CCCC1 [Example 94, (5S)-5-(Pyrrolidin-1-ylcarbonyl)-2-{[2-(trifluoromethyl)pyrimidin-4-yl]methyl}-5,6,7,8-tetrahydro[1,2,4]triazolo[4,3-a]pyridin-3(2H)-one]
0.46 nM | O=C([C@@H]1CCCc2nn(Cc3ncc(Cl)cc3F)c(=O)n21)N1C[C@@H](F)[C@@H](F)C1 [Example 408, (5S)-2-[(5-Chloro-3-fluoropyridin-2-yl)methyl]-5-{[(3R,4S)-3,4-difluoropyrrolidin-1-yl]carbonyl}-5,6,7,8-tetrahydro[1,2,4]triazolo[4,3-a]pyridin-3(2H)-one]
0.83 nM | O=C(C1CCCc2nn(Cc3cc(F)cc(C(F)(F)F)c3)c(=O)n21)N1CCCC1 (racemic) [Example 72]
1.5 nM | O=C(C1CCCc2nn(Cc3ccc(OC(F)(F)F)c(Cl)c3)c(=O)n21)N1CCCC1 (racemic) [Example 73, (5RS)-2-[3-Chloro-4-(trifluoromethoxy)benzyl]-5-(pyrrolidin-1-ylcarbonyl)-5,6,7,8-tetrahydro[1,2,4]triazolo[4,3-a]pyridin-3(2H)-one]
0.46 nM | O=C([C@@H]1CCCc2nn(Cc3nccc(C(F)(F)F)c3Cl)c(=O)n21)N1CC[C@H](F)C1 [Example 392, (5S)-2-{[3-Chloro-4-(trifluoromethyl)pyridin-2-yl]methyl}-5-{[(3S)-3-fluoropyrrolidin-1-yl]carbonyl}-5,6,7,8-tetrahydro[1,2,4]triazolo[4,3-a]pyridin-3(2H)-one]
6.9 nM | O=C([C@@H]1CCCc2nn(Cc3ncc(Cl)cc3Cl)c(=O)n21)N1CC(F)(F)C1 [Example 397, (5S)-2-[(3,5-Dichloropyridin-2-yl)methyl]-5-[(3,3-difluoroazetidin-1-yl)carbonyl]-5,6,7,8-tetrahydro[1,2,4]triazolo[4,3-a]pyridin-3(2H)-one]
1.7 nM | O=C([C@@H]1CCCc2nn(Cc3ncc(C(F)(F)F)cc3Cl)c(=O)n21)N1CCCC1 [Example 106, (5S)-2-{[3-Chloro-5-(trifluoromethyl)pyridin-2-yl]methyl}-5-(pyrrolidin-1-ylcarbonyl)-5,6,7,8-tetrahydro[1,2,4]triazolo[4,3-a]pyridin-3(2H)-one]
36 nM | O=C([C@@H]1CCCc2nn(Cc3ncc(Cl)cc3F)c(=O)n21)N1CC(F)C(F)C1 (some centres unmarked) [Example 549]
0.82 nM | COc1ccc(Cn2nc3n(c2=O)[C@H](C(=O)N2CCCC2)CCC3)cn1 [Example 538, (5S)-2-[(6-Methoxypyridin-3-yl)methyl]-5-(pyrrolidin-1-ylcarbonyl)-5,6,7,8-tetrahydro[1,2,4]triazolo[4,3-a]pyridin-3(2H)-one]
